US9868727B2, “Factor XIa inhibitors” (Merck Sharp & Dohme Corp., priority 2014, dated 2018)

Legend:
[1] = biological target: T1, purified human Factor XIa (Homo sapiens, UniProt P03951); assay: Factor XIa Assay; type: biochemical; conditions: fluorogenic substrate Z-Gly-Pro-Arg-AFC 100 μM, 40 pM enzyme, pH 7.4, read-out: F11a IC50
T1 construct: purified human Factor XIa; purchased Sekisui Diagnostics
Procedure: The effectiveness of a compound of the present invention as an inhibitor of Coagulation Factor XIa can be determined using a relevant purified serine protease, and an appropriate synthetic substrate. The rate of hydrolysis of the chromogenic or fluorogenic substrate by the relevant serine protease was measured both in the absence and presence of compounds of the present invention. Assays were conducted at room temperature or at 37° C. […] A decrease in the rate of fluorescence change in the presence of inhibitor is indicative of enzyme inhibition. Such methods are known to one skilled in the art. […]
Factor XIa determinations were made in 50 mM HEPES buffer at pH 7.4 containing 150 mM NaCl, 5 mM CaCl2, and 0.1% PEG 8000 (polyethylene glycol; JT Baker or Fisher Scientific). Determinations were made using purified human Factor XIa at a final concentration of 40 pM (Sekisui Diagnostics) and he synthetic substrate, Z-Gly-Pro-Arg-AFC, TFA salt (Sigma #C0980) at a concentration of 100 μM.
Activity assays were performed by diluting a stock solution of substrate at least tenfold to a final concentration ≦0.1 Km into a solution containing enzyme or enzyme equilibrated with inhibitor. Times required to achieve equilibration between enzyme and inhibitor were determined in control experiments. Initial velocities of product formation in the absence (VO) or presence of inhibitor (Vi) were measured. Assuming competitive inhibition, and that unity is negligible compared Km/[S], [I]/e, and [I]/e (where [S], [I], and e respectively represent the total concentrations, of substrate, inhibitor and enzyme), the equilibrium constant (Ki) for dissociation of the inhibitor from the enzyme can be obtained from the dependence of VO/Vi on [I] shown in the following equation.

[2] = biological target: T2, purified Human plasma kallikrein (Homo sapiens, UniProt P03952); assay: Kallikrein Assay; type: biochemical; conditions: Plasma Kallekrein IC50; fluorogenic substrate Acetyl-K-P-R-AFC, 0.5 nM enzyme, pH 7.4; read-out: PK IC50
T2 construct: yields a heavy chain (371 amino acids) and a light chain (248 amino acids); purchased Enzyme Research Laboratories
T2 sequence (P03952 391-638 limits assumed): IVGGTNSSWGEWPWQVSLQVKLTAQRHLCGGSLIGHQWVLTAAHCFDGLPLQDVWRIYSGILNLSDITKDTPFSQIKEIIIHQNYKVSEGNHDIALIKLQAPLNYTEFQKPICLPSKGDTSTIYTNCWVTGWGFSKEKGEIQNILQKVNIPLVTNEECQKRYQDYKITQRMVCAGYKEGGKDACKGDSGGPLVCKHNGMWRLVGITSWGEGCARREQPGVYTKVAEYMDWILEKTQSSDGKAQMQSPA
T2 sequence (P03952 20-390 partner limits assumed): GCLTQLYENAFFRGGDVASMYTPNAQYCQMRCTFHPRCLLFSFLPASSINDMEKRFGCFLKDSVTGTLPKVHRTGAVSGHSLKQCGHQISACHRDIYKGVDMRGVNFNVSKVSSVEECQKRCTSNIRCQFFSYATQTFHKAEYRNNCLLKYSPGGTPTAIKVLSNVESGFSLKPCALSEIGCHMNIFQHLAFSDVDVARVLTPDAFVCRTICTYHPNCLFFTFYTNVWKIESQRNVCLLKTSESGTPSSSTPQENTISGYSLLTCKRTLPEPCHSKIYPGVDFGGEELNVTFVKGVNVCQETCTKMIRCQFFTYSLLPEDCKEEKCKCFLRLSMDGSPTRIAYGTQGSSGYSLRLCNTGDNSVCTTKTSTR
Procedure: The effectiveness of a compound of the present invention as an inhibitor of Kallikrein can be determined using a relevant purified serine protease, and an appropriate synthetic substrate. The rate of hydrolysis of the chromogenic or fluorogenic substrate by the relevant serine protease was measured both in the absence and presence of compounds of the present invention. Assays were conducted at room temperature or at 37° C. […] A decrease in the rate of fluorescence change in the presence of inhibitor is indicative of enzyme inhibition. Such methods are known to one skilled in the art. The results of this assay are expressed as the inhibitory constant, K1.
Kallikrein determinations were made in 50 mM HEPES buffer at pH 7.4 containing 150 mM NaCl, 5 mM CaCl2, and 0.1% PEG 8000 (polyethylene glycol; Fisher Scientific). Determinations were made using purified Human plasma kallikrein at a final concentration of 0.5 nM (Enzyme Research Laboratories) and the synthetic substrate, Acetyl-K—P—R-AFC (Sigma # C6608) at a concentration of […].
Times required to achieve equilibration between enzyme and inhibitor were determined in control experiments. The reactions were performed under linear progress curve conditions and fluorescence increase measured at 405 Ex/510 Em nm. […] IC50 was determined by inflection point from a four parameter logistic curve fit. Ki was calculated using the Cheng Prusoff equation, Ki=IC50/(1+([S]/Km)).

T1 sequence (P03951 388-625 limits assumed): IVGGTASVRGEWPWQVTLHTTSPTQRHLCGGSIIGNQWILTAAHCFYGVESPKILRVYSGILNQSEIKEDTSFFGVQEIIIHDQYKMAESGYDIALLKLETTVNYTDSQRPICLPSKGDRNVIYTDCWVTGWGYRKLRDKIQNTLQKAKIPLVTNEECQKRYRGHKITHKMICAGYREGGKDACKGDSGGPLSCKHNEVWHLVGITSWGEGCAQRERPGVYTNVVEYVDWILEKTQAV
T1 sequence (P03951 19-387 partner limits assumed): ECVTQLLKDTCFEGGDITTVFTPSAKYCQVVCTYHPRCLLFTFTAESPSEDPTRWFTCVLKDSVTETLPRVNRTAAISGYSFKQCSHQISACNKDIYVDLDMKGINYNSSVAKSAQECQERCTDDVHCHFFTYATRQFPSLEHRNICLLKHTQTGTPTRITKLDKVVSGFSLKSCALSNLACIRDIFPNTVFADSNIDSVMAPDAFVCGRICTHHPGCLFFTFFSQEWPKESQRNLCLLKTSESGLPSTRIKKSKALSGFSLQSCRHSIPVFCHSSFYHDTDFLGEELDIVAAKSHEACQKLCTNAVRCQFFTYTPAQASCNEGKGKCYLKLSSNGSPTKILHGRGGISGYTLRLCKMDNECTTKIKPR

SMILES | IC50 [1] [nM] | IC50 [2] [nM]
N#Cc1cccc(-c2cnc(C(CC3CC3)c3ccc(-c4cc(Cl)ccc4-n4cnnn4)c[n+]3[O-])[nH]2)c1 (single isomer, unassigned) [Example 35] | 1000 | 
COC(=O)c1scc(-c2cnc(C(CC3CC3)c3ccc(-c4cc(Cl)ccc4-n4cnnn4)c[n+]3[O-])[nH]2)c1F (single isomer, unassigned) [Example 62, Methyl 4-[2-(1-{5-[5-chloro-2-(1H-tetrazol-1-yl)phenyl]-1-oxidopyridin-2-yl}-2-cyclopropylethyl)-1H-imidazol-5-yl]-3-fluorothiophene-2-carboxylate] | 1000 | 
COC(=O)Nc1ccc(-c2c[nH]c(C(Cc3ccc(F)cc3)c3ccc(-c4cc(Cl)ccc4C(F)F)c[n+]3[O-])n2)cc1 (single isomer, unassigned) [Example 12, 5-(5-chloro-2-(difluoromethyl)phenyl)-2-(2-(4-fluorophenyl)-1-(4-(4-((methoxycarbonyl)amino)phenyl)-1H-imidazol-2-yl)ethyl)pyridine 1-oxide] | 341 | 
N#Cc1ccc(-c2c[nH]c(C(Cc3ccc(F)cc3)c3ccc(-c4cc(Cl)ccc4-n4cnnn4)c[n+]3[O-])n2)cc1 (single isomer, unassigned) [Example 19] | 311 | 
COC(=O)Nc1ccc(-c2cnc(C(CC3CC3)c3ccc(-c4cc(Cl)ccc4-n4cncn4)c[n+]3[O-])[nH]2)cc1 (racemic) [Example 68] | 631 | 
COC(=O)Nc1ccc(-c2cnc([C@@H](Cc3ccccc3)c3ccc(-c4cc(Cl)ccc4-c4cnco4)c[n+]3[O-])[nH]2)cc1 [Example 26] | 271 | 
COC(=O)Nc1ccc(-c2cnc(C(CC3CC3)c3ccc(-c4cc(Cl)ccc4-n4cnnn4)c[n+]3[O-])[nH]2)c(F)c1 (single isomer, unassigned) [Example 37] | 74.8 | 
COC(=O)Nc1ccc(-c2cnc(C(CC3CC3)c3ccc(-c4cc(Cl)ccc4-n4cc(C(F)F)cn4)c[n+]3[O-])[nH]2)cc1 (racemic) [Example 75] | 931 | 
COC(=O)Nc1ccc(-c2cnc(C(CC3CC3)c3ccc(-c4cc(Cl)ccc4-n4cnnn4)c[n+]3[O-])[nH]2)cc1 (single isomer, unassigned) [Example 28, 5-(5-chloro-2-(1H-tetrazol-1-yl)phenyl)-2-(2-cyclopropyl-1-(5-(4-((methoxycarbonyl)amino)phenyl)-1H-imidazol-2-yl)ethyl)pyridine 1-oxide] |  | 20.8
COC(=O)Nc1ccc(-c2cnc(C(CC3CC3)c3ccc(-c4cc(Cl)ccc4-n4cnnc4)c[n+]3[O-])[nH]2)cc1 (racemic) [Example 66, 5-(5-chloro-2-(4H-1,2,4-triazol-4-yl)phenyl)-2-(2-cyclopropyl-1-(5-(4-((methoxycarbonyl)amino)phenyl)-1H-imidazol-2-yl)ethyl)pyridine 1-oxide] | 12.9 | 
[O-][n+]1cc(-c2cc(Cl)ccc2-n2cnnn2)ccc1C(Cc1ccc(F)cc1)c1nc(-c2ccc(Cl)cc2)c[nH]1 (single isomer, unassigned) [Example 21] | 128 | 
[O-][n+]1cc(-c2cc(Cl)ccc2-n2cnnn2)ccc1C(CC1CC1)c1ncc(-c2cccc(F)c2)[nH]1 (single isomer, unassigned) [Example 31] | 1000 | 
COC(=O)Nc1ccc(-c2cnc(C(CC3CC3)c3ccc(-c4cc(Cl)ccc4-c4cocn4)c[n+]3[O-])[nH]2)cc1 (racemic) [Example 71] | 834 | 
COC(=O)Nc1ccc(-c2cnc(C(CC3CC3)c3ccc(-c4cc(Cl)ccc4-n4cc(C(F)F)nn4)c[n+]3[O-])[nH]2)cc1 (racemic) [Example 74] | 11 | 
O=C(O)c1ccc(-c2cnc(C(CC3CC3)c3ccc(-c4cc(Cl)ccc4-n4cnnn4)c[n+]3[O-])[nH]2)cc1 (single isomer, unassigned) [Example 55] | 593 | 
COC(=O)Nc1ccc(-c2cnc(C(CC3CC3)c3ccc(-c4cc(Cl)ccc4-n4cccn4)c[n+]3[O-])[nH]2)cc1 (racemic) [Example 73] | 1000 | 
COC(=O)Nc1ccc(-c2c[nH]c(C(Cc3ccccc3)c3ccc(-c4c(F)ccc(Cl)c4F)c[n+]3[O-])n2)cc1 (single isomer, unassigned) [Example 6] | 289 | 
COC(=O)Nc1ccc(-c2c[nH]c(C(Cc3ccc(F)cc3)c3ccc(-c4cc(Cl)ccc4OC(F)F)c[n+]3[O-])n2)cc1 (racemic) [Example 15] | 34.2 | 
COC(=O)Nc1ccc(-c2[nH]c(C(CC3CC3)c3ccc(-c4cc(Cl)ccc4-n4cnnn4)c[n+]3[O-])nc2Cl)cc1 (single isomer, unassigned) [Example 78, 5-(5-chloro-2-(1H-tetrazol-1-yl)phenyl)-2-(1-(4-chloro-5-(4-((methoxycarbonyl)amino)phenyl)-1H-imidazol-2-yl)-2-cyclopropylethyl)pyridine 1-oxide] | 54.4 | 
N#Cc1ccc(-c2cnc(C(CC3CC3)c3ccc(-c4cc(Cl)ccc4-n4cnnn4)c[n+]3[O-])[nH]2)cc1 (single isomer, unassigned) [Example 30, 4-[2-(1-{5-[5-chloro-2-(1H-tetrazol-1-yl)phenyl]-1-oxidopyridin-2-yl}-2-cyclopropylethyl)-1H-imidazol-5-yl]benzonitrile] | 266 | 
COC(=O)Nc1ccc(-c2cnc(C(CC3CC3)c3ccc(-c4cc(Cl)ccc4-c4cnco4)c[n+]3[O-])[nH]2)cc1 (single isomer, unassigned) [Example 70] | 1000 | 
O=C(O)c1cccc(-c2cnc(C(CC3CC3)c3ccc(-c4cc(Cl)ccc4-n4cnnn4)c[n+]3[O-])[nH]2)c1F (single isomer, unassigned) [Example 52, 3-[2-(1-{5-[5-chloro-2-(1H-tetrazol-1-yl)phenyl]-1-oxidopyridin-2-yl}-2-cyclopropylethyl)-1H-imidazol-5-yl]-2-fluorobenzoic acid] | 204 | 
Nc1ccc(-c2cnc(C(CC3CC3)c3ccc(-c4cc(Cl)ccc4-n4cnnn4)c[n+]3[O-])[nH]2)c(Cl)n1 (single isomer, unassigned) [Example 48, 6-chloro-5-[2-(1-{5-[5-chloro-2-(1H-tetrazol-1-yl)phenyl]-1-oxidopyridin-2-yl}-2-cyclopropylethyl)-1H-imidazol-5-yl]pyridin-2-amine] | 72 | 
COC(=O)Nc1ccc(-c2cnc(C(CC3CC3)c3ccc(-c4cc(Cl)ccc4-n4ccnn4)c[n+]3[O-])[nH]2)cc1 (racemic) [Example 65, 5-(5-Chloro-2-(1H-1,2,3-triazol-1-yl)phenyl)-2-(2-cyclopropyl-1-(5-(4-((methoxycarbonyl)amino)phenyl)-1H-imidazol-2-yl)ethyl)pyridine 1-oxide] | 11.9 | 
O=C(O)c1cccc(-c2c[nH]c(C(CC3CC3)c3ccc(-c4cc(Cl)ccc4-n4cnnn4)c[n+]3[O-])n2)c1 (single isomer, unassigned) [Example 54] | 71 | 
COC(=O)Nc1ccc(-c2c[nH]c(C(Cc3ccc(F)cc3)c3ccc(-c4c(C#N)ccc(Cl)c4F)c[n+]3[O-])n2)cc1 (racemic) [Example 14] | 59.9 | 
NC(=O)c1scc(-c2cnc(C(CC3CC3)c3ccc(-c4cc(Cl)ccc4-n4cnnn4)c[n+]3[O-])[nH]2)c1F (single isomer, unassigned) [Example 59, 2-(1-(5-(5-carbamoyl-4-fluorothiophen-3-yl)-1H-imidazol-2-yl)-2-cyclopropylethyl)-5-(5-chloro-2-(1H-tetrazol-1-yl)phenyl)pyridine 1-oxide] | 110 | 
CC(C)OC(=O)Nc1ccc(-c2cnc(C(CC3CC3)c3ccc(-c4cc(Cl)ccc4-n4cnnn4)c[n+]3[O-])[nH]2)cc1 (racemic) [Example 46] | 2.91 | 
